From patent US10821115B2, “Compounds that inhibit Mcl-1 protein” (priority 2017, dated 2020)
pIC50: −log10 of the molar value. Where two headings read alike, the source gives them in different places.

Tests used:
[1] = target: recombinant human Mcl-1 (residues 171-327) / Bim interaction (Homo sapiens (Human), UniProt Q07820); assay: biochemical; assay type: binding; conditions: read-out: Mcl-1 HTRF IC50
[2] = system: human multiple myeloma cell line, OPM-2; assay: Cell viability assay (OPM-2 10 FBS), CellTiter-Glo; assay type: cell-based
Method in brief: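 OPM-2 cells at 3000 cells/well in RPMI 1640 with 10% FBS were exposed to serially diluted compounds for 16 h at 37 °C, 5% CO2.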

[3] = 0.1 nM Mcl-1(171-327), 0.05 nM biotin-Bim (51-76)
[4] = Homo sapiens, OPM-2, 16 h, read-out: OPM-2 10% FBS IC50 IP, OPM-2 cells, 10% FBS, 16 h incubation
[5] = read-out: OPM-2 10% FBS IC50 IP, OPM-2 cells, 10% FBS, 16 h, CellTiter-Glo
[6] = TR-FRET, Mcl-1(171-327) / biotin-Bim (51-76)
[7] = Homo sapiens, OPM-2, 16 h, read-out: OPM-2 10% FBS IC50 IP, OPM-2 cells, 10% FBS, 16 h, CellTiter-Glo

Sequence of recombinant human Mcl-1 (residues 171-327) / Bim interaction (Q07820 171-327): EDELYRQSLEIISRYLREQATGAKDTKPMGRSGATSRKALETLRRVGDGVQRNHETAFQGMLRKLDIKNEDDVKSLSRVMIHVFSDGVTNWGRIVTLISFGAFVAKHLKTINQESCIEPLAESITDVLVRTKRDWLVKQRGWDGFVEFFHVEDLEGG

Row | Structure (SMILES) | pIC50 [1, 3] | pIC50 [2, 4] | pIC50 [1, 6] | pIC50 [2, 7] | further results
1 | CO[C@@]1(CN2CCN(C3CN(C(C)=O)C3)CC2)/C=C/C[C@H](C)[C@@H](C)S(=O)(=O)NC(=O)c2ccc3c(c2)N(C[C@@H]2CC[C@H]21)C[C@@]1(CCCc2cc(Cl)ccc21)CO3 [Example 280, (1S,3′R,6′R,7′S,8′E,11′S,12′R)-7′-((4-(1-acetyl-3-azetidinyl)-1-piperazinyl)methyl)-6-chloro-7′-methoxy-11′,12′-dimethyl-3,4-dihydro-2H,15′H-spiro[naphthalene-1,22′-[20]oxa[13]thia[1,14]diazatetracyclo [14.7.2.0~3,6~.0~19,24~]pentacosa[8,16,18,24]tetraen]-15′-one 13′,13′-dioxide] | 10.28 | 7.14 |  |  | 
2 | C[C@@H]1[C@@H](C)CCC[C@@](O)(COS(C)(=O)=O)[C@@H]2CC[C@H]2CN2C[C@@]3(CCCc4cc(Cl)ccc43)COc3ccc(cc32)C(=O)NS1(=O)=O [Example 100283, ((1S,3′R,6′R,7′S,11′S,12′R)-6-chloro-7′-hydroxy-11′,12′-dimethyl-13′,13′-dioxido-15′-oxo-3,4-dihydro-2H-spiro[naphthalene-1,22′-[20]oxa[13]thia[1,14]diazatetracyclo [14.7.2.0~3,6~.0~19,24~]pentacosa[16,18,24]trien]-7′-yl)methyl methanesulfonate] |  |  |  |  | pIC50 [1]: 9.84; pIC50 [2, 5]: 6.09
3 | COCC[C@@H]1[C@@H](C)C/C=C/[C@](CN2CCN3CCCC[C@@H]3C2)(OC)[C@@H]2CC[C@H]2CN2C[C@@]3(CCCc4cc(Cl)ccc43)COc3ccc(nc32)C(=O)NS1(=O)=O [Example 21, (1S,3′R,6′R,7′S,8′E,11′S,12′R)-6-chloro-7′-methoxy-12′-(2-methoxyethyl)-11′-methyl-7′-((9aR)-octahydro-2H-pyrido[1,2-a]pyrazin-2-ylmethyl)-3,4-dihydro-2H, 15′H-spiro[naphthalene-1,22′-[20]oxa[13]thia[1,14,25]triazatetracyclo[14.7.2.0˜3,6˜.0˜19,24˜]pentacosa[8,16,18,24]tetraen]-15′-one 13′,13′-dioxide] | 9.81 | 7.33 |  |  | 
4 | CO[C@]1(CN2CCN(C)CC2)/C=C/[C@H](C)[C@H](C)CS(=O)(=O)NC(=O)c2ccc3c(c2)N(C[C@@H]2CC[C@H]21)C[C@@]1(CCCc2cc(Cl)ccc21)CO3 [Example 160, (1S,3′R,6′R,7′R,8′E,10′S,11′S)-6-chloro-7′-methoxy-10′,11′-dimethyl-7′-((4-methyl-1-piperazinyl)methyl)-3,4-dihydro-2H,15′H-spiro[naphthalene-1,22′-[20]oxa[13]thia[1,14]diazatetracyclo [14.7.2.0~3,6~.0~19,24~]pentacosa[8,16,18,24]tetraen]-15′-one 13′,13′-dioxide] | 9.66 | 6.83 |  |  | 
5 | CO[C@@]1(Cc2cc(C)ccn2)/C=C/C[C@H](C)[C@@H](C)S(=O)(=O)NC(=O)c2ccc3c(c2)N(C[C@@H]2CC[C@H]21)C[C@@]1(CCCc2cc(Cl)ccc21)CO3 [Example 100560, (1S,3′R,6′R,7′S,8′E,11′S,12′R)-6-chloro-7′-methoxy-11′,12′-dimethyl-7′-((4-methyl-2-pyridinyl)methyl)-3,4-dihydro-2H,15′H-spiro[naphthalene-1,22′-[20]oxa[13]thia[1,14]diazatetracyclo [14.7.2.0~3,6~.0~19,24~]pentacosa[8,16,18,24]tetraen]-15′-one 13′,13′-dioxide] |  |  | 10.39 | 5.69 | 
6 | CNC(=O)C[C@]1(OC)/C=C/C[C@H](C)[C@@H](C)S(=O)(=O)NC(=O)c2ccc3c(c2)N(C[C@@H]2CC[C@H]21)C[C@@]1(CCCc2cc(Cl)ccc21)CO3 [Example 100009, 2-((1 S,3′R,6′R,7′S,8′E,11′S, 12′R)-6-chloro-7′-methoxy-11′,12′-dimethyl-13′,13′-dioxido-15′-oxo-3,4-dihydro-2H-spiro[naphthalene-1,22′-[20]oxa[13]thia[1,14]diazatetracyclo[14.7.2.0-3,6˜.0˜19,24˜]pentacosa[8,16,18,24]tetraen]-7′-yl)-N-methylacetamide] |  |  | 9.89 | 6.67 | 
7 | COC(OC)c1cncc([C@@]2(OC)/C=C/C[C@H](C)[C@@H](C)S(=O)(=O)NC(=O)c3ccc4c(c3)N(C[C@@H]3CC[C@H]32)C[C@@]2(CCCc3cc(Cl)ccc32)CO4)c1 (single isomer, unassigned) [Example 100511] |  |  | 10.15 | 6.37 | 
8 | CO[C@@]1(CN2CCN3CCOC[C@@H]3C2)/C=C/C[C@H](C)[C@@H](CC2CCC2)S(=O)(=O)NC(=O)c2ccc3c(c2)N(C[C@@H]2CC[C@H]21)C[C@@]1(CCCc2cc(Cl)ccc21)CO3 [Example 39, (1S,3′R,6′R,7′S,8′E,11′S,12′R)-6-chloro-12′-(cyclobutylmethyl)-7′-((9aS)-hexahydropyrazino[2,1-c][1,4]oxazin-8(1H)-ylmethyl)-7′-methoxy-11′-methyl-3,4-dihydro-2H,15′H-spiro[naphthalene-1,22′-[20]oxa[13]thia[1,14]diazatetracyclo [14.7.2.0~3,6~.0~19,24~]pentacosa[8,16,18,24]tetraen]-15′-one 13′,13′-dioxide] | 9.42 | 6.41 |  |  | 
9 | C[C@@H]1[C@@H](C)C/C=C/[C@@](O)(C#CCN2CCS(=O)(=O)CC2)[C@@H]2CC[C@H]2CN2C[C@@]3(CCCc4cc(Cl)ccc43)COc3ccc(cc32)C(=O)NS1(=O)=O [Example 100388, (1S,3′R,6′R,7′S,8′E,11′S,12′R)-6-chloro-7′-(3-(1,1-dioxido-4-thiomorpholinyl)-1-propyn-1-yl)-7′-hydroxy-11′,12′-dimethyl-3,4-dihydro-2H,15′H-spiro[naphthalene-1,22′-[20]oxa[13]thia[1,14]diazatetracyclo [14.7.2.0~3,6~.0~19,24~]pentacosa[8,16,18,24]tetraen]-15′-one 13′,13′-dioxide] |  |  | 8.93 |  | pIC50 [2, 5]: 5.67
10 | CO[C@]1(CN2CCN3CCCC[C@@H]3C2)/C=C/C[C@H](C)[C@@H](C)S(=O)(=O)NC(=O)c2ccc3c(n2)N(C[C@@H]2CC[C@H]21)C[C@@]1(CCCc2cc(Cl)ccc21)CO3 [Example 186, (1S,3′R,6′R,7′R,8′E,11′S,12′R)-6-chloro-7′-methoxy-11′,12′-dimethyl-7′-((9aR)-octahydro-2H-pyrido[1,2-a]pyrazin-2-ylmethyl)-3,4-dihydro-2H,15′H-spiro[naphthalene-1,22′-[20]oxa[13]thia[1,14,25]triazatetracyclo [14.7.2.0~3,6~.0~19,24~]pentacosa[8,16,18,24]tetraen]-15′-one 13′,13′-dioxide] | 9.59 | 6.37 |  |  | 
11 | C=C(F)C[C@]1(O)/C=C/C[C@H](C)[C@@H](C)S(=O)(=O)NC(=O)c2ccc3c(c2)N(C[C@@H]2CC[C@H]21)C[C@@]1(CCCc2cc(Cl)ccc21)CO3 [Example 100565, (1S,3′R,6′R,7′S,8′E,11′S,12′R)-6-chloro-7′-(2-fluoro-2-propen-1-yl)-7′-hydroxy-11′,12′-dimethyl-3,4-dihydro-2H,15′H-spiro[naphthalene-1,22′-[20]oxa[13]thia[1,14]diazatetracyclo [14.7.2.0~3,6~.0~19,24~]pentacosa[8,16,18,24]tetraen]-15′-one 13′,13′-dioxide] |  |  | 8.81 | 5.69 | 
